For 81 compounds, RP-LC retention time results are on record in the METLIN SMRT retention time set (Domingo-Almenara et al. 2019).

The data set in a line: gradient 5% acetonitrile 3 min, to 50% in 2 min, to 85% in 15 min, held 3 min, 100 µL/min. The following applies: column: Zorbax Extend-C18 2.1 x 50 mm; eluents: water / acetonitrile, 0.1% formic acid. An outline of the steps: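 In both positive and negative ionization mode, a quadrupole time-of-flight mass spectrometer coupled to HPLC analyzed pure standards run in mixtures of ~100 molecules. The Zorbax Extend-C18 column (2.1 × 50 mm, 1.8 μm) was operated at 100 μL/min with water and acetonitrile, each containing 0.1% formic acid. The dead volume was 40 μL and the dwell volume 900 μL. Retention time came from adduct peaks that were computationally picked and individually inspected by hand.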
Turning to `CC1(C(=O)N2CCCc3ccccc32)Cc2ccccc2C(=O)O1` (stereo unspecified), the RP-LC retention time is 841 s.

Regarding `CC1(COc2ccc3c(c2)ncn3-c2ccc3cccc(N4CCC(N)CC4)c3n2)COC1`, the RP-LC retention time turned out to be 667 s.

As for `O=S(=O)(c1cccc2c(Cl)cccc12)N1CCCNCC1`, the RP-LC retention time stood at 716 s.

`CSc1cccc(NC(=O)C2CCCN(C(=O)c3cc(-c4ccncc4)n[nH]3)C2)c1` (stereo unspecified) returned an RP-LC retention time of 645 s.

Consider `O=C(NC1CCCCC1)NC1CCN(C(=O)C2CCC2)C1` (stereo unspecified), for which the RP-LC retention time worked out at 680 s.

In the case of `CCCS(=O)(=O)c1nc2ccc(NS(=O)(=O)c3ccc4c(c3)CCC4)cc2s1`, the RP-LC retention time amounted to 999 s.

In the case of `COc1ccc(-c2cnc(NC(=O)[C@H]3CCCCN3S(=O)(=O)c3ccc(C)cc3)s2)cc1`, the RP-LC retention time amounted to 1270 s.

In turn, `CC(C)CCNC(=O)CCSC1CCc2ccccc2NC1=O` (stereo unspecified) showed an RP-LC retention time of 777 s.

`CCn1cc(-c2ccc(C)cc2)cc1C(=O)NCc1cccnc1` yielded an RP-LC retention time of 713 s.

Consider `COc1ccc2c(c1)C1(CCN(S(=O)(=O)c3cccc(F)c3)C1)C(=O)N2C` (stereo unspecified), for which the RP-LC retention time turned out to be 874 s.

`Cc1cc2nn(CC(=O)NCc3ccc4c(c3)OCO4)c(=O)n2c(-c2ccccc2)n1` came in with an RP-LC retention time of 600 s.

Compound `Cc1ccc(CNC(=O)C2Cn3cccc3C(=O)N2)o1` (stereo unspecified) yielded an RP-LC retention time of 633 s.

As to `CN1CCN(C(=O)c2c3c(nc4ccccc24)C(=O)N(C2CCCCC2)C3)CC1`, the RP-LC retention time turned out to be 600 s.

On to `COc1ccc(NC(=O)N2CCCC(C)(C(=O)NCc3ccc(C)cc3)C2)cc1` (stereo unspecified), for which the RP-LC retention time is 874 s.

In the case of `Cc1ccc(NC(=O)Cn2c(N3CCc4ccccc4C3)nc(C)cc2=O)cc1`, the RP-LC retention time came to 810 s.

As for `CCc1ccc(CNC(=O)Cn2cnc3nc4c(cc3c2=O)CC(C)CC4)cc1` (stereo unspecified), the RP-LC retention time was 855 s.

In turn, `CCCCOC(=O)c1ccc(Nc2nc(C(=O)OCC)nc3ccccc23)cc1` gave an RP-LC retention time of 1070 s.

Compound `CCCCN(C)C(=O)c1cc(NC(=O)C(C)(C)C)cnc1N1CCNCC1` registered an RP-LC retention time of 622 s.

For the compound `CC(=O)N1CCc2ccc(NS(=O)(=O)CCN3C(=O)CCCC3=O)cc21`, the RP-LC retention time is 615 s.

As to `O=C(NCc1csc(-c2ccccc2)n1)C1CCN(S(=O)(=O)c2cccc(F)c2)CC1`, the RP-LC retention time was determined as 912 s.

`CC(C)c1ccc(NC(=O)Cn2cnc3nc4c(cc3c2=O)CCCC4)cc1` yielded an RP-LC retention time of 762 s.

`O=C(COc1ccccc1Br)Nc1nc(-c2ccccc2)cs1` had an RP-LC retention time of 1130 s.

`COc1ccc(-c2cc(N3CCN(C(=O)COc4ccc(Cl)cc4)CC3)ncn2)cc1` came in with an RP-LC retention time of 738 s.

In the case of `Cc1cc(C)n(-c2nc(-c3ccccc3)cc(=O)n2CC(=O)N2CCCc3ccccc32)n1`, the RP-LC retention time was found to be 1040 s.

For `Cc1nnc(-c2cn(CC(=O)Nc3ccccc3Br)c3ccccc23)o1`, the RP-LC retention time was 829 s.

Consider `CC(C)Oc1ccc(-c2noc(Cn3c(=O)n(Cc4ccccc4)c(=O)c4sccc43)n2)cc1`, for which the RP-LC retention time turned out to be 1170 s.

For `O=C(Cn1cccc1-c1nnc(C2CCC2)o1)Nc1ccccc1`, the RP-LC retention time turned out to be 862 s.

Regarding `CC(CCc1ccccc1)NC(=O)CCc1c(-c2ccc(Cl)cc2)nc2ccccn12` (stereo unspecified), the RP-LC retention time came to 774 s.

Regarding `CCC(C)NC(=O)c1ccc2c(c1)CC(=O)N2C` (stereo unspecified), the RP-LC retention time stood at 644 s.

Regarding `O=C(CN1C(=O)CCCc2cc(S(=O)(=O)N3CCCCCC3)ccc21)N1CCCCCC1`, the RP-LC retention time amounted to 915 s.

`Cn1c(=O)c(C(=O)NCc2ccc(F)cc2Cl)nc2cccnc21`: the RP-LC retention time is 824 s.

`COC(=O)c1cnc2nc(C)ccc2c1Nc1ccc(Cl)cc1F` showed an RP-LC retention time of 711 s.

Take `CCCN1C(=O)c2cc(S(=O)(=O)N3CCCCC3C)ccc2Oc2cccnc21` (stereo unspecified): the RP-LC retention time was determined as 1170 s.

For `COc1cccc(C(=O)NCCOc2cccc(C(F)(F)F)c2)c1OC`, the RP-LC retention time is 972 s.

Compound `CC(=O)N1CCCc2cc(S(=O)(=O)CCC(=O)Nc3ccc(Br)cc3C)ccc21` came in with an RP-LC retention time of 829 s.

In the case of `COc1cc(CSc2nc(CC(=O)NCc3cccs3)cs2)cc(OC)c1`, the RP-LC retention time was found to be 873 s.

For `CN1CCn2cc(S(=O)(=O)Nc3cccc(F)c3)cc2C1=O`, the RP-LC retention time amounted to 687 s.

Take `Cn1c(-c2ccccc2)nn(CCNC(=O)c2cc3ccccc3o2)c1=O`: the RP-LC retention time came to 694 s.

`COc1ccccc1CCN1CC(=O)N(c2cccc(C)c2)[C@@H]2CS(=O)(=O)C[C@@H]21` returned an RP-LC retention time of 850 s.

For `O=C(c1ccncc1)N1CCCCC1c1nc(-c2ccncc2)no1` (stereo unspecified), the RP-LC retention time came to 689 s.

Turning to `Cc1cccc(NC(=O)CSc2nc(N3CCCCC3)nc3ccccc23)c1`, the RP-LC retention time stood at 758 s.

As for `CCN(CC)S(=O)(=O)c1ccc2c(c1)N(CC(=O)NCCc1ccccc1)C(=O)C1CCCCN21` (stereo unspecified), the RP-LC retention time was 1000 s.

In the case of `CCc1nc(-c2csc(S(=O)(=O)N3CCCC(C(=O)NC4CCCCCC4)C3)c2)no1` (stereo unspecified), the RP-LC retention time was 1060 s.

`Cn1cc(C(=O)N2CCN(C3CCCCC3)CC2)c2cccnc21`: the RP-LC retention time is 632 s.

In turn, `CCOc1cccc2sc(N(Cc3ccccn3)C(=O)c3nn(C)cc3C)nc12` yielded an RP-LC retention time of 763 s.

With `O=C(NCc1ccc2c(c1)OCO2)C1CCCN(c2nccn3nc(-c4ccccc4Cl)cc23)C1` (stereo unspecified), the RP-LC retention time came out at 895 s.

Compound `CNC(=O)CN(C)C(=O)c1cc2c(s1)N(C)CCCC2` returned an RP-LC retention time of 686 s.

`CCCSc1nnc(NC(=O)c2c(-c3ccccc3Cl)noc2C)s1` showed an RP-LC retention time of 956 s.

On to `COc1ccc(-c2cc(C(=O)N3CCN(c4ccc(N5CCOCC5)nn4)CC3)[nH]n2)cc1`, for which the RP-LC retention time was 625 s.

On to `CCOc1ccc(-c2cc(=O)n(CCCC(=O)Nc3ccc(-n4cnnn4)cc3)cn2)cc1`, for which the RP-LC retention time came out at 696 s.

`Cc1c(NC(=O)C(C)C)c(=O)n(-c2ccccc2)n1C` showed an RP-LC retention time of 745 s.

Take `CC(Cc1ccccc1)NC(N)=O` (stereo unspecified): the RP-LC retention time was 698 s.

Take `CCCc1cc(SCc2ccc(C(=O)OC)cc2)ncn1`: the RP-LC retention time came out at 992 s.

Take `O=S(=O)(Cc1ccc(Cl)cc1)N1CCC(n2c(-c3ccco3)nc3cccnc32)C1` (stereo unspecified): the RP-LC retention time is 927 s.

`CCOC(=O)Cn1c(CNC(=O)c2ccco2)nc2ccccc21` returned an RP-LC retention time of 618 s.

As to `CCN(CC)C(=O)c1c(C)oc2ccn(Cc3ccc(F)cc3)c(=O)c12`, the RP-LC retention time came out at 787 s.

In the case of `CCCCOC(=O)C1=CN(C)S(=O)(=O)N=C1C`, the RP-LC retention time was determined as 875 s.

In turn, `Cc1cc(Nc2nc3ccncc3n(C(C)C)c2=O)ccc1F` had an RP-LC retention time of 679 s.

`O=C(NCCc1noc(C2CC2)n1)c1ccoc1`: the RP-LC retention time was 664 s.

Turning to `CC(C)C(=O)NCCc1nc2cccnc2n1C`, the RP-LC retention time is 545 s.

`CCOc1ccccc1NC(=O)N1CC(N(CC)C2CCOCC2)C1`: the RP-LC retention time turned out to be 561 s.

Turning to `CCc1nncn1C1CCN(S(=O)(=O)c2ccc(C)c(Cl)c2)CC1`, the RP-LC retention time is 754 s.

In turn, `COc1ncccc1CNC(=O)c1sccc1C` came in with an RP-LC retention time of 746 s.

In turn, `O=C(CSc1nccc2c1ccn2Cc1ccc(F)cc1)NCc1ccco1` came in with an RP-LC retention time of 1040 s.

`CC(C)(C)c1nnc(NC(=O)C2CC(=O)N(CCc3c[nH]c4ccc(Cl)cc34)C2)s1` (stereo unspecified): the RP-LC retention time came to 831 s.

For `CCN1CCN(CCCNC(=O)c2noc(C)c2Cn2nc(C)cc2C)CC1`, the RP-LC retention time came to 572 s.

The compound `O=C(N1CCC(c2nc(-c3ccccc3)no2)C1)C1(c2ccccc2)CC1` (stereo unspecified) came in with an RP-LC retention time of 994 s.

With `Cc1oc(-c2[nH]ncc2C(=O)N2CCCC2)cc1S(=O)(=O)N1CCN(CC(C)C)CC1`, the RP-LC retention time is 580 s.

Compound `COc1cc(C(=O)NCCOc2ccc(F)cc2)c([N+](=O)[O-])cc1OC` registered an RP-LC retention time of 777 s.

Turning to `COc1ccccc1C(O)Cn1ccn2nc(-c3ccc(C)c(C)c3)cc2c1=O` (stereo unspecified), the RP-LC retention time is 982 s.

In turn, `O=C(c1cn(-c2cc(N3CCSCC3)ncn2)cn1)N1CCN(c2ccccn2)CC1` yielded an RP-LC retention time of 624 s.

As to `CCOc1ccc(-n2nnc(-c3nc(-c4ccc(C(C)C)cc4)cs3)c2N)cc1`, the RP-LC retention time stood at 1350 s.

As for `Cc1ccc(C)c(NC(=O)Cn2c(=O)nc(N3CCC(C)CC3)c3ccccc32)c1`, the RP-LC retention time stood at 880 s.

With `CCN1CCCn2nc(C3CCN(S(=O)(=O)c4ccc(F)cc4)CC3)cc2C1=O`, the RP-LC retention time is 761 s.

The compound `Cc1ccc2c(Nc3cc(F)cc(F)c3)c(C(=O)N3CCCC3)cnc2n1` showed an RP-LC retention time of 615 s.

Compound `O=C(Cn1nc2c3cc(-c4ccccc4)nn3ccn2c1=O)Nc1ccc(Br)cc1F` showed an RP-LC retention time of 923 s.

On to `C#CCn1c(=O)c2c(ncn2C)n(C)c1=O`, for which the RP-LC retention time was 629 s.

Turning to `COc1ccc(/C=C2\COc3ccc(C)cc3C2=O)cc1O`, the RP-LC retention time is 1050 s.

Consider `O=C(c1ccc2ccnc(N3CCN(c4ccccc4)CC3)c2c1)N1CCN(C2CCCCC2)CC1`, for which the RP-LC retention time is 625 s.

In turn, `c1ccc(-c2nc(-c3ccnc(N4CCCC4)c3)no2)nc1` gave an RP-LC retention time of 594 s.

Turning to `Cn1c(=O)c2c3c(cnc2n(C)c1=O)C(=O)CCC3`, the RP-LC retention time stood at 704 s.
